From paper PMC4685510, “A Cell Biologist’s Field Guide to Aurora Kinase Inhibitors” (Frontiers in Oncology, 2015) come the findings set out here.

Common to all, as to test: biochemical
Format in all cases: biochemical

In experiment [1] the target is T1, 363 human kinases (including Aurora A/B/C) (Homo sapiens, UniProt O14733).
T1 sequence (O14733 1-419): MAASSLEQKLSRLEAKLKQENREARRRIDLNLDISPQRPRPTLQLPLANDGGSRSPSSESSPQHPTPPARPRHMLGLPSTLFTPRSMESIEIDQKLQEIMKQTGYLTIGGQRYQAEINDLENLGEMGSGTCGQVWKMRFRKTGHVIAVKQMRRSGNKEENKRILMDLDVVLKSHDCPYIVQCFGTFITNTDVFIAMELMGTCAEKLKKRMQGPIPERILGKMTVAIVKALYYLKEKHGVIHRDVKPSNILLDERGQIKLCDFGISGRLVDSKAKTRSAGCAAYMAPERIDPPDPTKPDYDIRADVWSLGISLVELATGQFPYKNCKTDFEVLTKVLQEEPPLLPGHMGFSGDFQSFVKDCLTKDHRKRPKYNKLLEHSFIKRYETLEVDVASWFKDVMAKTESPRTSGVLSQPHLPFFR
The conditions noted are these: MKK7; for remaining activity at 0.5 µM / remaining activity at 0.1 µM: read-out: % Enzyme Activity (relative to DMSO controls); for remaining activity at 0.1 µM: 100 nM.
Description: (§1) However, the Aurora A/B selectivity ratios derived from our in vitro and in vivo data can be compared to prioritize inhibitors.

For experiment [2], the target named is 363 human kinases (including Aurora A/B/C) (Homo sapiens, UniProt P30291). The conditions noted are these: WEE1; for remaining activity at 0.5 µM / remaining activity at 0.1 µM: read-out: % Enzyme Activity (relative to DMSO controls); for remaining activity at 0.1 µM: 100 nM.
Description: as §1
In experiment [3] the target is 363 human kinases (including Aurora A/B/C) (Homo sapiens, UniProt P11309). The conditions noted are these: PIM1; for remaining activity at 0.5 µM / remaining activity at 0.1 µM: read-out: % Enzyme Activity (relative to DMSO controls); for remaining activity at 0.1 µM: 100 nM.
Description: as §1
For experiment [4], the target named is T2, 363 human kinases (including Aurora A/B/C) (Homo sapiens, UniProt Q9NR20).
T2 sequence (Q9NR20 1-520): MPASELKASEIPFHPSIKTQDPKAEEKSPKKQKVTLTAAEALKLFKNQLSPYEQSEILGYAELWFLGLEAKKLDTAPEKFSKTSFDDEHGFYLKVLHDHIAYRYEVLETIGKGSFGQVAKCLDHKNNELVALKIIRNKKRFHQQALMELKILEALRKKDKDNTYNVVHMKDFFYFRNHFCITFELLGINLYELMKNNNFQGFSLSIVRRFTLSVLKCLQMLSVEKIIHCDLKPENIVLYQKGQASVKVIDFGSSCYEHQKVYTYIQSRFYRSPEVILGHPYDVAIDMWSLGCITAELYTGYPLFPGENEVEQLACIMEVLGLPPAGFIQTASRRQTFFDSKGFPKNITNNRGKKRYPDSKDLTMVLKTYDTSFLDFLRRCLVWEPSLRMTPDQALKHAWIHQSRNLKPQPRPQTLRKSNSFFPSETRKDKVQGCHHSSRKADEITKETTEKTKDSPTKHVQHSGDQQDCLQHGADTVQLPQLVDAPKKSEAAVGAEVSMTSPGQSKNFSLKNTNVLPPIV
The settings on record: DYRK4, [ATP] 2.5 µM; for remaining activity at 0.5 µM / remaining activity at 0.1 µM: read-out: % Enzyme Activity (relative to DMSO controls); for remaining activity at 0.1 µM: 100 nM.
Description: as §1

The target in experiment [5] is T3, 363 human kinases (including Aurora A/B/C) (Homo sapiens, UniProt Q8WTQ7).
T3 sequence (Q8WTQ7 1-553): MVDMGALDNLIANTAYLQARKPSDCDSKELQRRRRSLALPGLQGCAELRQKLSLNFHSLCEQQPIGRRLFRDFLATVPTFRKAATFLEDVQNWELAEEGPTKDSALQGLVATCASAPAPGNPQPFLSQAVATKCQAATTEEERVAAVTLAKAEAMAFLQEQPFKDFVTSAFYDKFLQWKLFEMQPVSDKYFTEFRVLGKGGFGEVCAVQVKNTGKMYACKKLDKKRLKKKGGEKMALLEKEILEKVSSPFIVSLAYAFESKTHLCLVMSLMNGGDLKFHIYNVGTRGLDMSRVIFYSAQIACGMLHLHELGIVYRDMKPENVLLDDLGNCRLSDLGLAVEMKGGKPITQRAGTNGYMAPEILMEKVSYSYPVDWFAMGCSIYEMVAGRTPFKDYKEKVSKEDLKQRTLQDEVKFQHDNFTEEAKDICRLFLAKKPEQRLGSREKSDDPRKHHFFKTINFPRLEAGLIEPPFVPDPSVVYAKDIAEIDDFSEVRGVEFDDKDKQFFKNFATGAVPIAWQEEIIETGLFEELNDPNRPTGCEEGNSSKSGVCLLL
The settings on record: GRK7; for remaining activity at 0.5 µM / remaining activity at 0.1 µM: read-out: % Enzyme Activity (relative to DMSO controls); for remaining activity at 0.1 µM: 100 nM.
Description: as §1

Experiment [6] concerns the target T4, 363 human kinases (including Aurora A/B/C) (Homo sapiens, UniProt Q16832).
T4 sequence (Q16832 22-855): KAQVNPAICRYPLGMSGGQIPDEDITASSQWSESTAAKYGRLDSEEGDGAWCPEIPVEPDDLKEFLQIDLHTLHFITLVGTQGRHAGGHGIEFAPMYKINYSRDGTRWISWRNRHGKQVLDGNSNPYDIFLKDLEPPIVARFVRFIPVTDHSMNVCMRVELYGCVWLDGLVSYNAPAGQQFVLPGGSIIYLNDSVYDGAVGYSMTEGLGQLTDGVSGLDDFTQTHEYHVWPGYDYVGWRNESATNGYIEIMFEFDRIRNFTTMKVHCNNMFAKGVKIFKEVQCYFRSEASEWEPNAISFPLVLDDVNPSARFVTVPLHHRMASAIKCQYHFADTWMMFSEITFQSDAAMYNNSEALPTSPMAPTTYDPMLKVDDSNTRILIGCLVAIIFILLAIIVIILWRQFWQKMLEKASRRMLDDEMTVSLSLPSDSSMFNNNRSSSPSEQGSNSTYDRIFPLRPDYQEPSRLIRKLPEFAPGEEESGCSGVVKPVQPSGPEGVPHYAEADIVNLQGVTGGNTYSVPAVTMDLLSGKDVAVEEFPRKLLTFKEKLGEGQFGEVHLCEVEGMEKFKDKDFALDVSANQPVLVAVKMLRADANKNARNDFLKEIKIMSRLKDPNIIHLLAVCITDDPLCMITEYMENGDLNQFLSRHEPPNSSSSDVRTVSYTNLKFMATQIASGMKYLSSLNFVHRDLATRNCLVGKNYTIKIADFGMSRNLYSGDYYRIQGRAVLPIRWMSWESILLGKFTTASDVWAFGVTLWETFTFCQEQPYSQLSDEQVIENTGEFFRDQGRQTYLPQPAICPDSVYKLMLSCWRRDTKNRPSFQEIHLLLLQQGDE
The conditions noted are these: DDR2, [ATP] 5 µM; for remaining activity at 0.5 µM / remaining activity at 0.1 µM: read-out: % Enzyme Activity (relative to DMSO controls); for remaining activity at 0.1 µM: 100 nM.
Description: as §1

Sequence of 363 human kinases (including Aurora A/B/C) (Homo sapiens, UniProt P11309) (P11309 whole entry): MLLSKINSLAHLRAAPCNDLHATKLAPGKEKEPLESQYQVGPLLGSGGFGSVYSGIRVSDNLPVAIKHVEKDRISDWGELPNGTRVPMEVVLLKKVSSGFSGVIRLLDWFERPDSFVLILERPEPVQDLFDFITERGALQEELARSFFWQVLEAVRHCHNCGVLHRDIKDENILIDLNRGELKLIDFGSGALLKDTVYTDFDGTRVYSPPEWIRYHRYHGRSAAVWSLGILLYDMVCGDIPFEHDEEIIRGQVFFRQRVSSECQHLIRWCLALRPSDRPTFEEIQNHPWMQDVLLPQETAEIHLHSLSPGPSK
Sequence of 363 human kinases (including Aurora A/B/C) (Homo sapiens, UniProt P30291) (P30291 whole entry): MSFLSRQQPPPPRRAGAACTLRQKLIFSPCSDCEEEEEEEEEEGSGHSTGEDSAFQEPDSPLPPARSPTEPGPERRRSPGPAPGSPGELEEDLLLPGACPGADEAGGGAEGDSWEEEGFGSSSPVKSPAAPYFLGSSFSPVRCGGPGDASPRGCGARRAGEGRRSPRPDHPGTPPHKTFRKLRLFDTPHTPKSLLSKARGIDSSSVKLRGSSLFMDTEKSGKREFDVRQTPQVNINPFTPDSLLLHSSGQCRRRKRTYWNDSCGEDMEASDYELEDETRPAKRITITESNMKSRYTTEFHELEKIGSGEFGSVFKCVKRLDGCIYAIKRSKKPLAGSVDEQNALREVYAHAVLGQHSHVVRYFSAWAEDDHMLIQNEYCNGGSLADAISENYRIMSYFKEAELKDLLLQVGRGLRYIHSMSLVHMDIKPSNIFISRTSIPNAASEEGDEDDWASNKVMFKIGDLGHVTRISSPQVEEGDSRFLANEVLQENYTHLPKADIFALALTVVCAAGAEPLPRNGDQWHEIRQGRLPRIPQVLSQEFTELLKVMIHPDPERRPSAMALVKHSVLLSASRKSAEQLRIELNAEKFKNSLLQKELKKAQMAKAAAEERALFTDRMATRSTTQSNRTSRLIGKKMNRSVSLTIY

With `O=C(c1cccc(Cl)c1F)N1CCN(Cc2cccc(Nc3nccs3)n2)CC1` [MK-8745], the “% Enzyme Activity (relative to DMSO controls)” value came out at 95.34% in experiment [1] (500 nM); 99.94% in experiment [2] (500 nM); 98.06% in experiment [3] (500 nM); 88.59% in experiment [4] (500 nM); 97.48% in experiment [5] (500 nM); 71.49% in experiment [6] (500 nM). Further, the remaining activity at 0.5 µM in experiment [1] (500 nM) is 98%; in experiment [2] (500 nM), 105%; in experiment [3] (500 nM), 101%; in experiment [4] (500 nM) it was 89.1%; in experiment [5] (500 nM), 101%; in experiment [6] (500 nM), 73.2%.
On to `CCn1cc(-c2ccnc3[nH]c(-c4cccc(CN(C)C)c4)cc23)c(-c2ccc(NC(=O)N(C)C)cc2)n1` [GSK1070916], for which the remaining activity at 0.1 µM in experiment [1] was 95.4%; in experiment [2] it was 97%; in experiment [3], 102%; in experiment [4] it was 95.3%; in experiment [5], 100%; in experiment [6], 76.1%.
Turning to `O=C(O)[C@]1(Cc2cccc(Nc3nccs3)n2)CC[C@@H](Oc2cccc(Cl)c2F)CC1` [MK-5108], the remaining activity at 0.1 µM amounted to 99.5% in experiment [1]; 106% in experiment [2]; 92% in experiment [3]; 99.4% in experiment [4]; 98.7% in experiment [5]; 21.8% in experiment [6]. Further, the remaining activity at 0.5 µM in experiment [1] (500 nM) stood at 101%; in experiment [2] (500 nM) it was 93.4%; in experiment [3] (500 nM), 83.8%; in experiment [4] (500 nM), 93.6%; in experiment [5] (500 nM), 94.2%; in experiment [6] (500 nM), 9.68%.
